Consider one compound from patent US20180177749A1, “USE OF CYP EXPRESSION TO DIRECT THERAPEUTIC INTERVENTION IN CANCER” (REGENTS OF THE UNIVERSITY OF MINNESOTA, priority 2016, published 2018).

pIC50, pKi: −log10 of the molar value. Like-named read-outs stand apart in the source and are kept apart here.

For one data set, the target named is T1, CYP3A4 (Homo sapiens, UniProt P08684).
T1 construct: host or cells: insect cells (microsomes)
The data set is described as follows: Recombinant microsomal CYP-mediated EET biosynthesis (CYP3A4 Supersomes). The conditions noted are these: for pIC50: microsomal CYP3A4. It counts as biochemical. The text has this: (§1) Samples were submitted to liquid chromatography-electrospray ionization/multiple reaction monitoring/mass spectrometry (LC-ESI/MRM/MS) analysis in a Thermo Electron Quantum Discovery Max triple quadrupole mass spectrometer (Thermo Finnigan, San Jose, Calif.) coupled with an Agilent 1100 HPLC (Santa Clara, Calif.), using argon as the collision gas. […] A standard curve was obtained by linear regression of the peak area ratio of authentic EET regioisomers against internal standards. The amount of EETs in samples was calculated according to the standard curve. The (±)-5,6-EET regioisomer was not measured because it undergoes rapid internal degradation.
(§2) CYP3A4 or 2C8 Supersomes™ (BD Biosciences) were incubated at 37° C. for 30 min in the presence of AA (5 μM) in […] Tris-HCl, pH 7.4, containing 1 mm EDTA and 1 mm NADPH. Reactions were terminated by adding methylene chloride (0.5 ml). Samples were centrifuged at 3,000 rpm for 10 min and 150 μl of the organic phases were evaporated under nitrogen. Samples were reconstituted in 20 μl of MeOH containing [^13C20]EET internal standards and submitted to a Thermo Electron Quantum Discovery Max triple quadrupole mass spectrometer (Thermo Finnigan, San Jose, Calif.) coupled with an Agilent 1100 HPLC (Santa Clara, Calif.) for analysis. […] Concentrations of EETs generated by CYP Supersomes™ were calculated by linear regression against standard curve generated with EET standards.

In the next data set the target is T2, CYP3A4 vs CYP2C8 (Homo sapiens, UniProt P08684).
T2 construct: host or cells: insect cells (microsomes)
T2 sequence (P08684 whole entry): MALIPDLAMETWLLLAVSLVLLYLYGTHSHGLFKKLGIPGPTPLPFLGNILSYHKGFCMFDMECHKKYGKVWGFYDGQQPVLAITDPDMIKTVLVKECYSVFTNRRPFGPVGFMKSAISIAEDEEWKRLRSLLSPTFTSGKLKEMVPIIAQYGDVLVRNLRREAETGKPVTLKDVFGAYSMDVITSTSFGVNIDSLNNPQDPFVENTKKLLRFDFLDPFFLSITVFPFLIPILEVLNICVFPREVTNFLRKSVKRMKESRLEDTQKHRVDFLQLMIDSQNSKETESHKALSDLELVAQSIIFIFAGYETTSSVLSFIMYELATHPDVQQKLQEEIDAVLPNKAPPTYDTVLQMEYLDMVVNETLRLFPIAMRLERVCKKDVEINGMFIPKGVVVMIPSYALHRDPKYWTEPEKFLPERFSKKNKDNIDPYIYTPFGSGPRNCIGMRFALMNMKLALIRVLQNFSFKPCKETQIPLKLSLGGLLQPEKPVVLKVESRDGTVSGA
The description is as above. It counts as biochemical. The conditions noted are these: human, CYP3A4 or CYP2C8 Supersomes (recombinant microsomes), pH 7.4, probe arachidonic acid (AA), 5 μM; CYP3A4 vs CYP2C8; read-out: selectivity for CYP3A4 epoxygenase activity.
Excerpt: as §1, §2

The subject of the next data set is MDA-MB-435/LCC6. Nature of the data set: Cell growth inhibition, MDA-MB-435/LCC6. It counts as cell-based. The conditions noted are these: MDA-MB-435/LCC6, Triple negative.
The next data set relates to MCF-7 cells. The data set is described as follows: Measurement of OCR and ECAR (extracellular flux), MCF-7. It counts as cell-based, human. How it is done: Cells were maintained in growth medium consisting of 10% FBS at 37° C. with 5% CO2 and seeded at 100,000 cells per well in XF24-well cell culture microplates (Seahorse Bioscience, North Billirica, Mass.). Concentrated stocks of HBB were prepared in DMSO. HBB was diluted to 10× working concentration in XF assay medium (a non-buffered medium including 2 mM L-glutamine but no sodium bicarbonate (buffering agent), glucose, or sodium pyruvate). Assays were performed in the XF Extracellular Flux Analyzer (Seahorse Bioscience that measures uptake and excretion of metabolic end products in real time). Oxygen consumption rate (OCR) and extracellular acidification rate (ECAR) were measured using an XF Assay Kit. OCR is reported in pmoles/minute and ECAR in mpH/minute. Before analysis, the cells were switched from culture medium to XF assay medium. After baseline measurements, 75 μl of HBB prepared in assay medium was injected into each well to reach final working concentrations. After addition of HBB, OCR and ECAR were measured at 18-minute intervals. […] There were 6 replicates for the studies of the 3-18 and 4-14 cell lines.

In a further data set the test system is T47D. The data set is described as follows: Measurement of OCR and ECAR, T47D. It counts as cell-based, human. The conditions noted are these: 20 and 40 μM. How it is done:
Cells were maintained in growth medium consisting of 10% FBS at 37° C. with 5% CO2 and seeded at 100,000 cells per well in XF24-well cell culture microplates (Seahorse Bioscience, North Billirica, Mass.). Concentrated stocks of HBB were prepared in DMSO. HBB was diluted to 10× working concentration in XF assay medium (a non-buffered medium including 2 mM L-glutamine but no sodium bicarbonate (buffering agent), glucose, or sodium pyruvate). Assays were performed in the XF Extracellular Flux Analyzer (Seahorse Bioscience that measures uptake and excretion of metabolic end products in real time). Oxygen consumption rate (OCR) and extracellular acidification rate (ECAR) were measured using an XF Assay Kit. OCR is reported in pmoles/minute and ECAR in mpH/minute. Before analysis, the cells were switched from culture medium to XF assay medium. After baseline measurements, 75 μl of HBB prepared in assay medium was injected into each well to reach final working concentrations. After addition of HBB, OCR and ECAR were measured at 18-minute intervals. There were 5 replicates was performed for each data point for MCF-7, MDA-MB-231, T47D and MDA-MB-435 cell lines. There were 6 replicates for the studies of the 3-18 and 4-14 cell lines.

Another data set deals with MDA-MB-231 cells. The data set is described as follows: JC-1 mitochondrial membrane potential staining, MDA-MB-231. It counts as cell-based, human. The conditions noted are these: HBB 20 μM 4 hours, (±)-14,15-EET 1 μM. The method, then: Cells were grown in chamber slides at 37° C. with 5% CO2 and treated with DMSO or HBB for 4 hours before JC-1 dye was added for the MCF-7 or MDA-MB-231 cell line. […] Images of red fluorescence (590 nm) and green fluorescence (530 nm) were acquired using an Olympus 1X70 microscope fitted with an Olympus DP70 digital camera (Olympus, Tokyo, Japan).

Setting [1] is: t-AUCB 2.5, 5 μM, metformin 2.5, 5 mM, HBB 20, 40 μM, rotenone 1 μM.

T1 sequence (P08684 whole entry): as above

In general, pKi refers to −log10 of the Ki, conventionally taken in molar units. Usually pIC50 stands for the IC50 on a negative log10 scale, so that one unit is a factor of ten. In the case of `CCCCCCNC(=N)NC(=N)NCc1ccccc1` [HBB, N1-hexyl-N5-benzyl-biguanide], on CYP3A4 (CYP3A4 epoxygenase activity), the pKi was 5.05. The pIC50 on CYP3A4 (read-out: IC50, CYP3A4 synthesis of (±)-8,9-EET) is 5.02; at CYP3A4 (read-out: IC50, CYP3A4 synthesis of (±)-11,12-EET) it was 5.10; with MDA-MB-435/LCC6 it was 4.90. For the same compound, the selectivity ratio at 30 min on CYP3A4 vs CYP2C8 was in the range of 5 to 7. Moreover, in the data set with MCF-7 cells, the “potency as inhibitor of OCR relative to metformin” value was “more than 250 fold”. In the data set with MCF-7 cells (setting [1]), the “extracellular acidification rate (ECAR)” value is recorded as “significant inhibition of ECAR without recovery”. Moreover, the “oxygen consumption rate (OCR)” value with MCF-7 cells (setting [1]) is reported as “dose-dependent reduction of OCR”. For the same compound, the “reduction of OCR and ECAR” value with T47D is on record as “significant vs. vehicle”. Also, the “mitochondrial membrane potential (ΔΨm), JC-1” value in the data set on MDA-MB-231 cells is on record as “caused mitochondrial depolarization”.
